Experimental data published in the NIST ThermoML archive (doi:10.1016/j.jct.2015.08.014).
Numbers after ± are expanded uncertainties.

Test: xn = mol fraction of the nth substance listed
Conditions: 298.15 K, 100 kPa, Liquid, Alternating current cell with electrodes

CCCC[N+]1(C)CCCC1.N#CN=C=[N-] [1-butyl-1-methylpyrrolidinium dicyanamide] + O=C1CCCO1
Conditions	electrical conductivity [S/m]
Frequency=0.005 MHz, x1 = 0.3029	2.54 ± 0.026
Frequency=0.005 MHz, x1 = 0.3845	2.36 ± 0.024
Frequency=0.005 MHz, x1 = 0.4985	2.08 ± 0.021
Frequency=0.005 MHz, x1 = 0.6954	1.68 ± 0.017
Frequency=0.005 MHz, x1 = 0.9013	1.39 ± 0.014
Frequency=0.005 MHz, x1 = 1	1.317 ± 0.013
Frequency=0.005454 MHz, x1 = 0.0463	1.47 ± 0.026
Frequency=0.005454 MHz, x1 = 0.0987	2.21 ± 0.027
Frequency=0.005454 MHz, x1 = 0.1449	2.51 ± 0.026
Frequency=0.005454 MHz, x1 = 0.1859	2.67 ± 0.027
Frequency=0.005454 MHz, x1 = 0.2493	2.613 ± 0.026
Frequency=0.005454 MHz, x1 = 0.3029	2.54 ± 0.026
Frequency=0.005454 MHz, x1 = 0.3845	2.36 ± 0.024
Frequency=0.005454 MHz, x1 = 0.4985	2.08 ± 0.021
Frequency=0.005454 MHz, x1 = 0.6954	1.68 ± 0.017
Frequency=0.005454 MHz, x1 = 0.9013	1.39 ± 0.014
Frequency=0.005454 MHz, x1 = 1	1.317 ± 0.013
Frequency=0.006 MHz, x1 = 0.0463	1.47 ± 0.026
Frequency=0.006 MHz, x1 = 0.0987	2.21 ± 0.027
Frequency=0.006 MHz, x1 = 0.1449	2.51 ± 0.026
Frequency=0.006 MHz, x1 = 0.1859	2.67 ± 0.027
Frequency=0.006 MHz, x1 = 0.2493	2.613 ± 0.026
Frequency=0.006 MHz, x1 = 0.3029	2.54 ± 0.026
Frequency=0.006 MHz, x1 = 0.3845	2.36 ± 0.024
Frequency=0.006 MHz, x1 = 0.4985	2.08 ± 0.021
Frequency=0.006 MHz, x1 = 0.6954	1.68 ± 0.017
Frequency=0.006 MHz, x1 = 0.9013	1.39 ± 0.014
Frequency=0.006 MHz, x1 = 1	1.317 ± 0.013
Frequency=0.00652174 MHz, x1 = 0.0463	1.47 ± 0.026
Frequency=0.00652174 MHz, x1 = 0.0987	2.22 ± 0.027
Frequency=0.00652174 MHz, x1 = 0.1449	2.51 ± 0.026
Frequency=0.00652174 MHz, x1 = 0.1859	2.67 ± 0.027
Frequency=0.00652174 MHz, x1 = 0.2493	2.613 ± 0.026
Frequency=0.00652174 MHz, x1 = 0.3029	2.54 ± 0.026
Frequency=0.00652174 MHz, x1 = 0.3845	2.36 ± 0.024
Frequency=0.00652174 MHz, x1 = 0.4985	2.08 ± 0.021
Frequency=0.00652174 MHz, x1 = 0.6954	1.68 ± 0.017
Frequency=0.00652174 MHz, x1 = 0.9013	1.39 ± 0.014
Frequency=0.00652174 MHz, x1 = 1	1.317 ± 0.013
Frequency=0.00694444 MHz, x1 = 0.0463	1.47 ± 0.026
Frequency=0.00694444 MHz, x1 = 0.0987	2.22 ± 0.027
Frequency=0.00694444 MHz, x1 = 0.1449	2.51 ± 0.026
Frequency=0.00694444 MHz, x1 = 0.1859	2.67 ± 0.027
Frequency=0.00694444 MHz, x1 = 0.2493	2.613 ± 0.026
Frequency=0.00694444 MHz, x1 = 0.3029	2.54 ± 0.026
Frequency=0.00694444 MHz, x1 = 0.3845	2.36 ± 0.024
Frequency=0.00694444 MHz, x1 = 0.4985	2.08 ± 0.021
Frequency=0.00694444 MHz, x1 = 0.6954	1.68 ± 0.017
Frequency=0.00694444 MHz, x1 = 0.9013	1.39 ± 0.014
Frequency=0.00694444 MHz, x1 = 1	1.317 ± 0.013
Frequency=0.0075 MHz, x1 = 0.0463	1.47 ± 0.026
Frequency=0.0075 MHz, x1 = 0.0987	2.22 ± 0.027
Frequency=0.0075 MHz, x1 = 0.1449	2.51 ± 0.026
Frequency=0.0075 MHz, x1 = 0.1859	2.67 ± 0.027
Frequency=0.0075 MHz, x1 = 0.2493	2.613 ± 0.026
Frequency=0.0075 MHz, x1 = 0.3029	2.54 ± 0.026
Frequency=0.0075 MHz, x1 = 0.3845	2.36 ± 0.024
Frequency=0.0075 MHz, x1 = 0.4985	2.08 ± 0.021
Frequency=0.0075 MHz, x1 = 0.6954	1.68 ± 0.017
Frequency=0.0075 MHz, x1 = 0.9013	1.39 ± 0.014
Frequency=0.0075 MHz, x1 = 1	1.318 ± 0.013
Frequency=0.008 MHz, x1 = 0.0463	1.47 ± 0.026
Frequency=0.008 MHz, x1 = 0.0987	2.22 ± 0.027
Frequency=0.008 MHz, x1 = 0.1449	2.51 ± 0.026
Frequency=0.008 MHz, x1 = 0.1859	2.67 ± 0.027
Frequency=0.008 MHz, x1 = 0.2493	2.613 ± 0.026
Frequency=0.008 MHz, x1 = 0.3029	2.54 ± 0.026
Frequency=0.008 MHz, x1 = 0.3845	2.36 ± 0.024
Frequency=0.008 MHz, x1 = 0.4985	2.08 ± 0.021
Frequency=0.008 MHz, x1 = 0.6954	1.68 ± 0.017
Frequency=0.008 MHz, x1 = 0.9013	1.39 ± 0.014
Frequency=0.008 MHz, x1 = 1	1.318 ± 0.013
Frequency=0.00857143 MHz, x1 = 0.0463	1.48 ± 0.026
Frequency=0.00857143 MHz, x1 = 0.0987	2.22 ± 0.027
Frequency=0.00857143 MHz, x1 = 0.1449	2.51 ± 0.026
Frequency=0.00857143 MHz, x1 = 0.1859	2.67 ± 0.027
Frequency=0.00857143 MHz, x1 = 0.2493	2.613 ± 0.026
Frequency=0.00857143 MHz, x1 = 0.3029	2.54 ± 0.026
Frequency=0.00857143 MHz, x1 = 0.3845	2.36 ± 0.024
Frequency=0.00857143 MHz, x1 = 0.4985	2.08 ± 0.021
Frequency=0.00857143 MHz, x1 = 0.6954	1.68 ± 0.017
Frequency=0.00857143 MHz, x1 = 0.9013	1.39 ± 0.014
Frequency=0.00857143 MHz, x1 = 1	1.318 ± 0.013
Frequency=0.00892857 MHz, x1 = 0.0463	1.48 ± 0.026
Frequency=0.00892857 MHz, x1 = 0.0987	2.22 ± 0.027
Frequency=0.00892857 MHz, x1 = 0.1449	2.51 ± 0.026
Frequency=0.00892857 MHz, x1 = 0.1859	2.67 ± 0.027
Frequency=0.00892857 MHz, x1 = 0.2493	2.614 ± 0.026
Frequency=0.00892857 MHz, x1 = 0.3029	2.54 ± 0.026
Frequency=0.00892857 MHz, x1 = 0.3845	2.36 ± 0.024
Frequency=0.00892857 MHz, x1 = 0.4985	2.08 ± 0.021
Frequency=0.00892857 MHz, x1 = 0.6954	1.68 ± 0.017
Frequency=0.00892857 MHz, x1 = 0.9013	1.39 ± 0.014
Frequency=0.00892857 MHz, x1 = 1	1.318 ± 0.013
Frequency=0.00961538 MHz, x1 = 0.0463	1.48 ± 0.026
Frequency=0.00961538 MHz, x1 = 0.0987	2.22 ± 0.027
Frequency=0.00961538 MHz, x1 = 0.1449	2.51 ± 0.026
Frequency=0.00961538 MHz, x1 = 0.1859	2.68 ± 0.027
Frequency=0.00961538 MHz, x1 = 0.2493	2.614 ± 0.026
Frequency=0.00961538 MHz, x1 = 0.3029	2.54 ± 0.026
Frequency=0.00961538 MHz, x1 = 0.3845	2.36 ± 0.024
Frequency=0.00961538 MHz, x1 = 0.4985	2.08 ± 0.021
Frequency=0.00961538 MHz, x1 = 0.6954	1.68 ± 0.017
Frequency=0.00961538 MHz, x1 = 0.9013	1.39 ± 0.014
Frequency=0.00961538 MHz, x1 = 1	1.318 ± 0.013
Frequency=0.01 MHz, x1 = 0.0463	1.48 ± 0.026
Frequency=0.01 MHz, x1 = 0.0987	2.22 ± 0.027
